According to US20250275996A1, “COMBINATION OF TUNICAMYCIN-TYPE ANTIBIOTIC WITH POLYMYXINS AND USES THEREOF” (priority 2024, published 2025):

How the values were obtained:
S. cerevisiae = experiment: MIC by resazurin staining assay, yeast; assay type: cell-based, Saccharomyces cerevisiae; details: 24 hours at 30° C., TYG
Experimental: (§1) The […] growth inhibition (MIC) using natural tunicamycin (TUN), a tunicamycin derivative TunR2, polymyxin B, or a combination of polymyxin B with TUN or TunR2 were tested. Testing was performed using the resazurin staining assay. The resazurin staining assay uses the reduction by bacterial viable cells of the blue, non-fluorescent, and non-toxic dye, resazurin, to pink, fluorescent resorufin to assess the viability of biofilms. The Minimal Inhibitory Concentration (MIC) values where determined using standard microbiological methods, for example by spotting dilutions of the compounds or combinations on solid agar media plates after inoculating with bacteria, yeast, or buffer alone, followed by incubating for a defined period. This method results in clearing zones on agar plates.
(§2) To determine the MIC for polymyxin B alone, plates inoculated with E. coli MG1655 (Gram-negative bacterium), P. aeruginosa ATCC 2783 (Gram-negative bacterium), B. subtilis MW10 (Gram-positive bacterium), S. cerevisiae (eukaryote) in TYG, or DMSO alone (Control) were spotted with a dilution gradient of polymyxin B, and incubated for 24 hours at 30° C.

P. aeruginosa ATCC 2783 = experiment: MIC by resazurin staining assay, P. aeruginosa; assay type: cell-based, Pseudomonas aeruginosa
Experimental: as §1, §2
(§3) To determine the MIC for TUN or TunR2 in the presence or absence of polymyxin B, plates inoculated with E. coli MG1655, or P. aeruginosa ATCC 2783 in TYG, were spotted with a dilution gradient of Tun or TunR2 in the presence or absence of polymyxin B at sub-MIC concentration (MIC/2), or DMSO alone (Control). Images of two plates inoculated with E. coli are shown in FIG. 4A and FIG. 4B, and images of two plates inoculated with P. aeruginosa are shown in FIG. 4C and FIG. 4D.
The activity of Cefquinome alone, or in the presence of TunR2, polymyxin B, or polymyxin B and TunR2 on P. aeruginosa was tested. The MIC was determined using the resazurin staining assay described in Example 1.
Plates inoculated with P. aeruginosa, or DMSO alone (Control) in TYG were spotted with a dilution gradient of Cefquinome in the presence of TunR2, polymyxin B, or polymyxin B and TunR2, and incubated for 24 hours at 37° C.

E. coli MG1655 = experiment: MIC by resazurin staining assay, E. coli; assay type: cell-based, Escherichia coli
Experimental: as §1, §2, §3
(§4) The activity of TUN or TunR2 in the presence or absence of polymyxin B on Serratia marcescens (a honey bee pathogen) or E. coli was tested. The MIC was determined using the resazurin staining assay described in Example 1.
Plates inoculated with S. marcescens B-2544, E. coli, or DMSO alone (Control) in TYG were spotted with a dilution gradient of TUN or TunR2 in the presence or absence of a sub-MIC concentration of polymyxin B (half the MIC concentration), and incubated for 24 hours at 37° C. An image of a plate inoculated with S. marcescens is shown in FIG. 7A, and an image of a plate inoculated with E. coli is shown in FIG. 7B. […] The results obtained for E. coli compare well with the MICs of other antibiotics as taught by m. de Boer et al. (2015, “Minimum Inhibitory Concentrations of Selected Antimicrobials Against Escherichia Coli and Trueperella pyogenes of Bovine Uterine Origin,” J Dairy Sci. 98:4427-4438).

B. subtilis MW10 = experiment: MIC by resazurin staining assay, B. subtilis; assay type: cell-based, Bacillus subtilis; details: 24 hours at 30° C., TYG
Experimental: as §1, §2

S. marcescens B-2544 = experiment: MIC by resazurin staining assay, S. marcescens; assay type: cell-based, Serratia marcescens; details: 24 hours at 37° C.
Experimental: as §1, §4
Plates inoculated with S. marcescens B-2544, E. coli, or DMSO alone (Control) in TYG were spotted with a dilution gradient of TUN or TunR2 in the presence or absence of a sub-MIC concentration of polymyxin B (half the MIC concentration), and incubated for 24 hours at 37° C. […]

[1] = alone, dilution series, 24 hours at 37° C.

Molecule: polymyxin B
- effect on yeast (MIC for polymyxin B alone) (S. cerevisiae): not detectable
- MIC of polymyxin (P. aeruginosa ATCC 2783; Pseudomonas, polymyxin alone): 5.0 µg/mL
- MIC of polymyxin (E. coli MG1655; E. coli, polymyxin alone): 0.625 µg/mL
- MIC for polymyxin B alone (B. subtilis MW10): 2.5 µg/mL

Molecule: tunicamycin
- effect on P. aeruginosa in the absence of polymyxin B (P. aeruginosa ATCC 2783; [1]): neither Tun nor TunR2 had noticeable effect
- growth of P. aeruginosa in the presence of polymyxin B (P. aeruginosa ATCC 2783; with polymyxin B at MIC/2 (2.5 μg/mL), 24 hours at 37° C.): no E. coli or P. aeruginosa grew
- MIC in the presence of polymyxin B (E. coli MG1655; Example 2, E. coli, sub-MIC polymyxin B (half the MIC), 24 hours at 37° C.): 0.313 µg/mL
- effect on E. coli when used alone (E. coli MG1655; Example 2, absence of polymyxin B, 24 hours at 37° C., any of the concentrations tested): neither TUN nor TunR2 had a detectable effect
- effect on E. coli in the absence of polymyxin B (E. coli MG1655; [1]): neither Tun nor TunR2 had noticeable effect
- growth of E. coli in the presence of polymyxin B (E. coli MG1655; with polymyxin B at MIC/2 (0.313 μg/mL), 24 hours at 37° C.): no E. coli or P. aeruginosa grew
- MIC in the presence of polymyxin B (S. marcescens B-2544; S. marcescens, sub-MIC polymyxin B (half the MIC)): 5.0 µg/mL
- effect on S. marcescens when used alone (S. marcescens B-2544; absence of polymyxin B, any of the concentrations tested): neither TUN nor TunR2 had a detectable effect

Molecule: CO/N=C(\C(=O)N[C@@H]1C(=O)N2C(C(=O)[O-])=C(C[n+]3cccc4c3CCCC4)CS[C@H]12)c1csc(N)n1 [Cefquinome]
- MIC for Cefquinome (FIG. 8 legend) (P. aeruginosa ATCC 2783; P. aeruginosa in TYG, Cefquinome alone, 48 hours at 37° C.): 10.0 µg/mL
- MIC for Cefquinome alone (P. aeruginosa ATCC 2783; P. aeruginosa, 24 hours at 37° C.): 10 µg/mL
- MIC for Cefquinome in the presence of polymyxin B and TunR2 (P. aeruginosa ATCC 2783; P. aeruginosa, with 2.5 μg/mL polymyxin B and 6.25 μg/mL TunR2, 24 hours at 37° C.): 1.25 µg/mL
- MIC for Cefquinome in the presence of polymyxin B (P. aeruginosa ATCC 2783; P. aeruginosa, with 2.5 μg/mL polymyxin B, 24 hours at 37° C.): 5 µg/mL
- MIC for Cefquinome in the presence of TunR2 (P. aeruginosa ATCC 2783; P. aeruginosa, with 6.25 μg/mL TunR2, 24 hours at 37° C.): 10 µg/mL
